The values below come from patent publication EP2518139A1, “Use of indirubin derivatives for producing pluripotent stem cells” (Universitätsklinikum Jena, priority 2011, dated 2012).

One test concerns Smad1/5/8. The test can be described thus: Immunoblot of p-Smad1/5/8 and pan-Smad1/5/8 in HeLa cells. The format is cell-based, human. A general note: A western blot detects proteins with antibodies after separation by electrophoresis.
The test system of test [1] is mono-, di- and poly-ubiquitins. Briefly: Immunoblot of ubiquitins in HeLa cells. The format is cell-based, human. The following applies: BMP-stimulated HeLa, 24h; MG132 5µM, E738 (1µM). Here is the method: Western blot:: Cell extracts were homogenized in Urea-Lysis buffer (1mM EDTA,0.5% Triton X-100), 5mM NaF, 6M Urea, 1mM Na3VO4, 10µg/mL Pepstatin, 100µM PMSF and 3µg/mL Aprotinin in PBS). Enhanced chemiluminescence (ECL) Western blot analysis was performed. 20-40µg of total protein was resolved on 10% SDS-PAGE gels and immunoblotted with specific antibodies. Primary antibodies were incubated at a 1:1,000 dilution in TBS (pH 7.5) with 0.1% Tween-20 and 5% BSA/nonfat milk with gentle agitation overnight at 4°C. The proper secondary antibodies were incubated in TBS (pH 7.5) with 5% BSA/nonfat milk and 0.1 % Tween-20 at a 1:5,000 dilution for 1 h at room temperature.
Ubiquitin-proteasome degradation system is the major route to protein degradation. To identify if indirubin-induced degradation is conducted by proteasome, we utilized MG132, a general proteasome inhibitor, to characterize the role of proteasome in degradation. We found 5µM MG132 was sufficient to rescue the E738 mediated Smad1/5/8 […] 24h after treatment (Fig. 5E and 5F). […] Thus we interpreted that E738 might be able to promote degradation of polymerased ubiquintins through activating the formation of complexes with certain substrates, speculatively like Smad1/2/3/5/8, leading to accelerate the recycling of mono-ubiquitin, while MG132 blocked the degradation of these complexes and arrest such recycling. […]

The subject of test [2] is BMP- and TGFß-relative R-Smads. The test can be described thus: Immunoblot of BMP- and TGFß-relative R-Smads in HeLa cells (TGFß or FCS stimulation). The following applies: 24h, E738 (1µM), Bio (5µM), DM (1µM), Repsox (10µM); for P- and pan-Smads (R-Smads): TGFß (20ng/mL). The format is cell-based, human.
Another test has as its system p38. The following applies: reported by Zhu et al.; cited from earlier work.
The mark [3] stands for this setting: BMP2 (100ng/mL), 24h, compound at 5µM.

Residues, ends and D or L forms follow the SMILES beside them. *: point of attachment. Cbz = O=C(OCc1ccccc1)*

As to `CC(C)C[C@@H](C=O)NC(=O)[C@H](CC(C)C)NC(=O)[C@H](CC(C)C)NC(=O)OCc1ccccc1` [MG132, reference compound] (Cbz-Leu-Leu-Leu-aldehyde), the “concentration sufficient to rescue the E738 mediated Smad1/5/8 ubiquitination” value with Smad1/5/8 (BMP, 24h after treatment) came out at 5 µM. In addition, in the test on Smad1/5/8 (BMP, MG (5µM) with/without E738), the p-Smad1/5/8 entry is given as “accumulation of p-Smad1/5/8 was observed”. Also, the “mono-, di- and poly-ubiquitins” value in test [1] is “significantly stabilized mono-, di- and poly-ubiquitins”.

Take `Cc1cccc(-c2[nH]ncc2-c2ccc3ncccc3n2)n1` [Repsox]: the “activation of both types of R-Smads” value in test [2] (FCS 10%) is listed as “only partly”. Further, the “P- and pan-Smads (R-Smads)” value in test [2] is “inhibited TGFß-mediated activation of Smad3, but not Smad1/5/8 or total R-Smads protein”.

For the compound `C[C@@H]1C[C@@H]([C@H](O)CC2CC(=O)NC(=O)C2)C(=O)[C@@H](C)C1` [CHX, cyclohexamide, reference compound], the “signal of Smad1/5/8” value in the test with Smad1/5/8 (BMP2, CHX (10µM), 24h) was “weaker signal of Smad1/5/8”. Also, the “influence on the E738 induced degradation of Smad1/5/8” value with Smad1/5/8 (BMP2, mixture of E738 (1µM) and CHX 10µM, 24h) was “no influence on the degradation”.

In the case of `O=C1Nc2ccccc2/C1=C1/Nc2ccccc2/C1=N\O` [E231, Indirubin-3'-oxim], the “p-Smad1/5/8 at C-termini and pan-Smad1/5/8 levels” value in the test with Smad1/5/8 (BMP2 (100ng/mL), 24h, compound at 1µM) is listed as “slightly decreased”. Besides, in the test on Smad1/5/8 (setting [3]), the “level of pan Smad1/5/8” value is given as “induced the reduction only partly” and the “phosphorylation (activation) of Smad1/5/8” value is recorded as “strongly blocked the phosphorylation”. Further, the “phosphorylation of p38” value with p38 was “can stimulate the phosphorylation of p38”.

Take `O=C1Nc2cc(Br)ccc2/C1=C1/Nc2ccccc2/C1=N\O` [BIO, 6-Bromo-indirubin-3'-oxim, reference compound]: in the test on Smad1/5/8 (setting [3]), the “level of pan Smad1/5/8” value is on record as “slightly decreased pan-Smad1/5/8” and the “phosphorylation (activation) of Smad1/5/8” value is “clearly blocked the activation of Smad1/5/8”. Moreover, the “P- and pan-Smads (R-Smads)” value in test [2] is given as “attenuated effects”.

For `C[S+]([O-])c1ccc(-c2nc(-c3ccncc3)c(-c3ccc(F)cc3)[nH]2)cc1` (stereo not shown) [SB203580, reference compound], in the test on Smad1/5/8 (BMP, MAPK inhibitor alone or in combination with E738), the “level of pan Smad1/5/8” value was “neither alter the level of pan Smad1/5/8 alone, nor attenuate the E738-mediated degradation in combination with E738”.

As to `[Cl-].[Li+]` [LiCl, reference compound], the “BMP activated Smad1/5/8 and level of pan Smad1/5/8” value in the test with Smad1/5/8 (BMP, LiCl (30mM), 24h) is on record as “can attenuate BMP activated Smad1/5/8, but not change the level of pan Smad1/5/8”.
